Biological target: recombinant EZH2-641F complex (EZH2 Y641F/EED/SUZ12/RbAp48/AEBP2) (Homo sapiens (Human), UniProt Q15910, Y641F)
Experiment: EZH2 Histone Methyl Transferase Assay (scintillation proximity assay)
Assay type: biochemical
Conditions: 350 nM histone peptide substrate, 500 nM 3H-SAM, 3 hours room temperature
Protocol: EZH2 Histone Methyl Transferase Assay
The effectiveness of compounds of the present invention as inhibitors of histone methyl transferases can be readily tested by assays known to those skilled in the art. For example, in vitro histone methyl transferase assays may be conducted with a relevant purified histone methyl transferase and an appropriate synthetic substrate to determine the inhibitory activity of the compounds. Assays for inhibition of EZH2 by the instant compounds were performed in 384-well plates with reaction mixtures containing 350 nM of histone peptide substrate (ATKAAR-K(Me2)-SAPATGGVKKPHRYRPG-GK(Biotin), 500 nM S-[methyl-^3H]adenosyl-L-methionine (55-85 Ci/mmol), 50 mM Tris-HCl (pH 9.0), 50 mM NaCl, 1 mM dithiothreitol, Tween-20 at 0.01% and fatty-acid free bovine serum albumin at 0.01%, and recombinant EZH2-641F complex (EZH2 Y641F/EED/SUZ12/RbAp48/AEBP2) at 5 nM (>98% purity, BPS Bioscience) or 15 nM (50% purity, in-house). Reaction mixtures were incubated at room temperature for 3 hours, and the reactions were terminated by 0.005% poly-L-lysine solution in 20 mM Tris-HCl (pH 7.5) and 150 mM NaCl. Reaction products were captured by binding to strepavidin-conjugated imaging beads. Incorporation of radioactive methyl group into the histone peptide substrate was determined in Leadseeker (GE Healthcare) by means of scintillation proximity assay. Dose response curves were generated to determine the concentration required to inhibit 50% of methyl transferase activity (EC50). Compounds were dissolved at 10 mM in dimethylsulfoxide (DMSO) and evaluated at eleven concentrations. EC50 values were derived by non-linear regression analysis.

Chain of recombinant EZH2-641F complex (EZH2 Y641F/EED/SUZ12/RbAp48/AEBP2) (Q15910 whole entry Y641F): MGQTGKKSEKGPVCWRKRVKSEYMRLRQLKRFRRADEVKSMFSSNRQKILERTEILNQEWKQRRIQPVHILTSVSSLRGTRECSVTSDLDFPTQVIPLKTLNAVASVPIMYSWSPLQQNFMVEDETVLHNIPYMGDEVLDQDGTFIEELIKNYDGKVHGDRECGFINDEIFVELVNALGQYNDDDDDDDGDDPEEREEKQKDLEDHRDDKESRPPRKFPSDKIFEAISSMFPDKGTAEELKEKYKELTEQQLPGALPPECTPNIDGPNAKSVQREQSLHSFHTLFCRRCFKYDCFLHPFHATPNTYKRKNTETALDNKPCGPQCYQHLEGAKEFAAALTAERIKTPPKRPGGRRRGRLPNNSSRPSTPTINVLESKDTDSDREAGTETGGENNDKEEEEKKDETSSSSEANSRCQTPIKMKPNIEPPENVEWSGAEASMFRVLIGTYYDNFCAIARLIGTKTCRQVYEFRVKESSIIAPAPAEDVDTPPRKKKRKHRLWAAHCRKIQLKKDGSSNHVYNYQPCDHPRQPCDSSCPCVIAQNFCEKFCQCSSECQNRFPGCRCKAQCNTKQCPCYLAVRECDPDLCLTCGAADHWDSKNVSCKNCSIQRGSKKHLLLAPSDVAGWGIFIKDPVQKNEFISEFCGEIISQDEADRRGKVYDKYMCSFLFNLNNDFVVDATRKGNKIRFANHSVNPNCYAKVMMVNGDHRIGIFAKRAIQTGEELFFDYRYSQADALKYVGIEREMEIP
Chain of recombinant EZH2-641F complex (EZH2 Y641F/EED/SUZ12/RbAp48/AEBP2) (O75530 whole entry partner): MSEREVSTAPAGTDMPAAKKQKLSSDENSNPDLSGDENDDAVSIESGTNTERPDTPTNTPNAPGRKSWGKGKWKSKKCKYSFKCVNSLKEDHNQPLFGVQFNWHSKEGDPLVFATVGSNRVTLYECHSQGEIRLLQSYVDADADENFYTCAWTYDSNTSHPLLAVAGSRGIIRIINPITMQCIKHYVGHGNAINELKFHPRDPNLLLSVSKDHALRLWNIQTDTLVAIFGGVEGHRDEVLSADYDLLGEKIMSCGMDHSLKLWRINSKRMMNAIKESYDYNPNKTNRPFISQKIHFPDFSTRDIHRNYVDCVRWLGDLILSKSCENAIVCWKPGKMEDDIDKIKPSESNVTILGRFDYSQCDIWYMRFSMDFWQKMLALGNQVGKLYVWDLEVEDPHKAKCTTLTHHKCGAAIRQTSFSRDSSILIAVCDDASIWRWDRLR
Chain of recombinant EZH2-641F complex (EZH2 Y641F/EED/SUZ12/RbAp48/AEBP2) (Q15022 whole entry partner): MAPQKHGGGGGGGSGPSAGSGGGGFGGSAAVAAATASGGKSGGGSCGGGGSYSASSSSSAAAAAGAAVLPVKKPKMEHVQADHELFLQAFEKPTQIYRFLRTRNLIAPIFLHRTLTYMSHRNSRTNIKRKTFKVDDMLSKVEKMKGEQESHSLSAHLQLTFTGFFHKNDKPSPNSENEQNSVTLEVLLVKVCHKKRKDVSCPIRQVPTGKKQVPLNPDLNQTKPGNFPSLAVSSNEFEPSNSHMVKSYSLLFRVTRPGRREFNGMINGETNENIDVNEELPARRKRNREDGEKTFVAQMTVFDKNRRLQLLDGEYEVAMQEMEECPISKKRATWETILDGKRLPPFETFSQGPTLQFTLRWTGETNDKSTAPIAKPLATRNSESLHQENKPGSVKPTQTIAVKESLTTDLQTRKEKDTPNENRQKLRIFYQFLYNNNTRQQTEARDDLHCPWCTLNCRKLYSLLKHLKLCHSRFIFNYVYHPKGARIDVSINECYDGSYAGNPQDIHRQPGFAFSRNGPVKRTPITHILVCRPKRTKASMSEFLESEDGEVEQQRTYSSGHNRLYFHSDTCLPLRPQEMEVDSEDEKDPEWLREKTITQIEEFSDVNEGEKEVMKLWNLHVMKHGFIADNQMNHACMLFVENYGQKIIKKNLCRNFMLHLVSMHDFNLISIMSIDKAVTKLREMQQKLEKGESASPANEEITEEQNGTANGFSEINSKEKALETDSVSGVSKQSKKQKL
Chain of recombinant EZH2-641F complex (EZH2 Y641F/EED/SUZ12/RbAp48/AEBP2) (Q09028 whole entry partner): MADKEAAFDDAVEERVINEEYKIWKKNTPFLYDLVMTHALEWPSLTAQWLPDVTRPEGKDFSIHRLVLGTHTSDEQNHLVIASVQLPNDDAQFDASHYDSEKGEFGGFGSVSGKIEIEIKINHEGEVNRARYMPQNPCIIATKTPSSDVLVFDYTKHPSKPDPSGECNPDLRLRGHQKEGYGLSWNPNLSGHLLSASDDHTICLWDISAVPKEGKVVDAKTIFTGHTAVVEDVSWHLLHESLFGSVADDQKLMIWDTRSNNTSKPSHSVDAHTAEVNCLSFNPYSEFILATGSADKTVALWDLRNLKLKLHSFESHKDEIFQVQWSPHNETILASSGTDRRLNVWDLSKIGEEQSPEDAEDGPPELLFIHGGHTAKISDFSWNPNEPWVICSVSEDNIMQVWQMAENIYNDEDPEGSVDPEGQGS
Chain of recombinant EZH2-641F complex (EZH2 Y641F/EED/SUZ12/RbAp48/AEBP2) (Q6ZN18 whole entry partner): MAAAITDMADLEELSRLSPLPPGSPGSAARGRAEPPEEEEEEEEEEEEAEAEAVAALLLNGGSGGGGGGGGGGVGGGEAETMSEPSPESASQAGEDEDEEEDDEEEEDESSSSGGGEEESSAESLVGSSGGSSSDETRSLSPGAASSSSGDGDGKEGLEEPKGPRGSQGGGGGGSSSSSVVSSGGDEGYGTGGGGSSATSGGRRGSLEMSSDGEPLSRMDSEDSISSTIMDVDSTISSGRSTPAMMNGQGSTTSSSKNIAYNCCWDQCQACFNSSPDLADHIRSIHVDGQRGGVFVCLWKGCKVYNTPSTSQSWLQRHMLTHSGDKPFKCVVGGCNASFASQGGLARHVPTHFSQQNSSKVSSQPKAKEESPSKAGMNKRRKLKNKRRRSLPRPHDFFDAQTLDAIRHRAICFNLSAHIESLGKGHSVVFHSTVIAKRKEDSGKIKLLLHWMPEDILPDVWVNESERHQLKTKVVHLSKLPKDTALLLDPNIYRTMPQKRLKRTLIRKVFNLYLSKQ

Structure (SMILES) | IC50 [nM]
Cc1cc(C)c(CNC(=O)c2cc(Br)c3c(c2)CC2(CCCC2)O3)c(=O)[nH]1 [Example 70, 7-Bromo-N-((4,6-dimethyl-2-oxo-1,2-dihydropyridin-3-yl)methyl)-3H-spiro[benzofuran-2,1′-cyclopentane]-5-carboxamide] | > 1000
Cc1cc(C)c(CNC(=O)c2cc3c(c(-c4ccc(CN5CCCCC5)cc4)c2)OC(C)(C)C3)c(=O)[nH]1 [Example 19, N-((4,6-Dimethyl-2-oxo-1,2-dihydropyridin-3-yl)methyl)-2,2-dimethyl-7-(4-(piperidin-1-ylmethyl)phenyl)-2,3-dihydrobenzofuran-5-carboxamide] | > 1000
Cc1cc(C)c(CNC(=O)c2cc3c(c(-c4cnc5ccccc5c4)c2)OC(C)(C)C3)c(=O)[nH]1 [Example 13, N-((4,6-Dimethyl-2-oxo-1,2-dihydropyridin-3-yl)methyl)-2,2-dimethyl-7-(quinolin-3-yl)-2,3-dihydrobenzofuran-5-carboxamide] | > 1000
Cc1cc(C)c(CNC(=O)c2cc3c(c(-c4ccc(N5CCOCC5)nc4)c2)OC(C)C3)c(=O)[nH]1 (stereo not drawn) [Example 33, N-((4,6-Dimethyl-2-oxo-1,2-dihydropyridin-3-yl)methyl)-2-methyl-7-(6-morpholinopyridin-3-yl)-2,3-dihydrobenzofuran-5-carboxamide] | > 1000
Cc1cc(C)c(CNC(=O)c2cc(F)c3c(c2)CC(C)(C)O3)c(=O)[nH]1 [Example 4, N-((4,6-Dimethyl-2-oxo-1,2-dihydropyridin-3-yl)methyl)-7-fluoro-2,2-dimethyl-2,3-dihydrobenzofuran-5-carboxamide] | > 1000
Cc1cc(C)c(CNC(=O)c2cc(-c3ccc(N4CCNCC4)nc3)c3c(c2)C2(CCCC2)CO3)c(=O)[nH]1 [Example 77, N-((4,6-Dimethyl-2-oxo-1,2-dihydropyridin-3-yl)methyl)-7-(6-(piperazin-1-yl)pyridin-3-yl)-2H-spiro[benzofuran-3,1′-cyclopentane]-5-carboxamide] | > 1000
Cc1cc(C)c(CNC(=O)c2cc(Br)c3c(c2)CC(C(C)C)O3)c(=O)[nH]1 (stereo not drawn) [Example 79, 7-Bromo-N-((4,6-dimethyl-2-oxo-1,2-dihydropyridin-3-yl)methyl)-2-isopropyl-2,3-dihydrobenzofuran-5-carboxamide] | > 1000
COc1ccc(-c2cc(C(=O)NCc3c(C)cc(C)[nH]c3=O)cc3c2OCC3)cn1 [Example 36, N-((4,6-Dimethyl-2-oxo-1,2-dihydropyridin-3-yl)methyl)-7-(6-methoxypyridin-3-yl)-2,3-dihydrobenzofuran-5-carboxamide] | > 1000
COc1ccc(-c2cc(C(=O)NCc3c(C)cc(C)[nH]c3=O)cc3c2OC2(CCCC2)C3)cn1 [Example 71, N-((4,6-Dimethyl-2-oxo-1,2-dihydropyridin-3-yl)methyl)-7-(6-methoxypyridin-3-yl)-3H-spiro[benzofuran-2,1′-cyclopentane]-5-carboxamide] | > 1000
Cc1cc(C)c(CNC(=O)c2cc3c(c(-c4ccc(N5CCOCC5)nc4)c2)OCC3)c(=O)[nH]1 [Example 37, N-((4,6-Dimethyl-2-oxo-1,2-dihydropyridin-3-yl)methyl)-7-(6-morpholinopyridin-3-yl)-2,3-dihydrobenzofuran-5-carboxamide] | > 1000
C=C(C)C1(C)Cc2cc(C(=O)NCc3c(C)cc(C)[nH]c3=O)cc(Br)c2O1 (stereo not drawn) [Example 82, 7-Bromo-N-((4,6-dimethyl-2-oxo-1,2-dihydropyridin-3-yl)methyl)-2-methyl-2-(prop-1-en-2-yl)-2,3-dihydrobenzofuran-5-carboxamide] | > 1000
CCCc1cc(C)[nH]c(=O)c1CNC(=O)c1cc(Br)c2c(c1)CC(C)=C(C)CO2 [Example 86, 9-Bromo-3,4-dimethyl-N-((6-methyl-2-oxo-4-propyl-1,2-dihydropyridin-3-yl)methyl)-2,5-dihydrobenzo[b]oxepine-7-carboxamide] | > 1000
C=CC1COc2cc(C(=O)NCc3c(C)cc(C)[nH]c3=O)cc(Br)c2O1 (stereo not drawn) [Example 90, 8-Bromo-N-((4,6-dimethyl-2-oxo-1,2-dihydropyridin-3-yl)methyl)-2-vinyl-2,3-dihydrobenzo[b][1,4]dioxine-6-carboxamide] | > 1000

Second part, the molecule after the results:

IC50 [nM] | Structure (SMILES)
> 1000 | C=CC1(C)Cc2cc(C(=O)NCc3c(C)cc(C)[nH]c3=O)cc(-c3cnc(N4CCN(C(=O)OC(C)(C)C)CC4)nc3)c2O1 (stereo not drawn) [Example 60, t-Butyl 4-(5-(5-(((4,6-dimethyl-2-oxo-1,2-dihydropyridin-3-yl)methyl)carbamoyl)-2-methyl-2-vinyl-2,3-dihydrobenzofuran-7-yl)pyrimidin-2-yl)piperazine-1-carboxylate]
500 to 1000 | Cc1cc(C)c(CNC(=O)c2cc(Br)c3c(c2C)CC(C)(C)O3)c(=O)[nH]1 [Example 7, 7-Bromo-N-((4,6-dimethyl-2-oxo-1,2-dihydropyridin-3-yl)methyl)-2,2,4-trimethyl-2,3-dihydrobenzofuran-5-carboxamide]
500 to 1000 | Cc1cc(C)c(CNC(=O)c2cc(-c3ccc(N4CCNCC4)cc3)c3c(c2)[C@@H]2CCC[C@]2(C)O3)c(=O)[nH]1 (racemic) [Example 68, rac-(3aS,8bS)—N-((4,6-Dimethyl-2-oxo-1,2-dihydropyridin-3-yl)methyl)-3a-methyl-5-(4-(piperazin-1-yl)phenyl)-2,3,3a,8b-tetrahydro-1H-cyclopenta[b]benzofuran-7-carboxamide]
> 1000 | Cc1cc(C)c(CNC(=O)c2cc3c(c(-c4ccc(CN5CCOCC5)cc4)c2)OC(C)(C)C3)c(=O)[nH]1 [Example 10, N-((4,6-Dimethyl-2-oxo-1,2-dihydropyridin-3-yl)methyl)-2,2-dimethyl-7-(4-(morpholinomethyl)phenyl)-2,3-dihydrobenzofuran-5-carboxamide]
> 1000 | COc1ccc(-c2cc(C(=O)NCc3c(C)cc(C)[nH]c3=O)cc3c2OCC3C)cn1 (stereo not drawn) [Example 30, N-((4,6-Dimethyl-2-oxo-1,2-dihydropyridin-3-yl)methyl)-7-(6-methoxypyridin-3-yl)-3-methyl-2,3-dihydrobenzofuran-5-carboxamide]
> 1000 | Cc1cc(C)c(CNC(=O)c2cc(-c3ccc(N4CCOCC4)nc3)c3c(c2)C(C)CO3)c(=O)[nH]1 (stereo not drawn) [Example 27, N-((4,6-Dimethyl-2-oxo-1,2-dihydropyridin-3-yl)methyl)-3-methyl-7-(6-morpholinopyridin-3-yl)-2,3-dihydrobenzofuran-5-carboxamide]
< 500 | Cc1cc(C)c(CNC(=O)c2cc(-c3ccc(N4CCNCC4)nc3)c3c(c2C)CC(C)(C)O3)c(=O)[nH]1 [Example 26, N-((4,6-Dimethyl-2-oxo-1,2-dihydropyridin-3-yl)methyl)-2,2,4-trimethyl-7-(6-(piperazin-1-yl)pyridin-3-yl)-2,3-dihydrobenzofuran-5-carboxamide]
< 500 | Cc1cc(C)c(CNC(=O)c2cc3c(c(-c4cnc(N5CCN(C(=O)OC(C)(C)C)CC5)nc4)c2)OC(C)(C)C3)c(=O)[nH]1 [Example 17, t-Butyl 4-(5-(5-(((4,6-dimethyl-2-oxo-1,2-dihydropyridin-3-yl)methyl)carbamoyl)-2,2-dimethyl-2,3-dihydrobenzofuran-7-yl)pyrimidin-2-yl)piperazine-1-carboxylate]
